Experimental data reported in article PMC11882969 (Nature Communications, 2025).
“And” between values parts separate entries of the source, which are not always exact repeats. Equal values may be shown once. Read-outs that look alike come from different tables or passages of the source.

Assays:
mice [1] = assay: Tail flick, 50 °C water bath; assay type: in vivo, mouse; settings: for analgesic response normalised to baseline, WT vs CB1R KO (Figure5d), individual animals: 10 mg/kg
mice [2] = assay: Conditioned place preference; assay type: in vivo, mouse; settings: for Individual animal scores (FigS11e): test not printed on the sheet; for conditioned place preference: drug-paired vs vehicle-paired chamber
Description: Briefly, mice were first habituated to the test apparatus, twice, and their preference for each chamber recorded for 30 min (Pretest). Two conditioning days followed in which mice received the vehicle control or the compound, and 30 min later restricted for 30 min in the preferred or non-preferred chamber, respectively. On day 5 (Test day), mice were allowed to roam freely between the 3 chambers of the apparatus and their preference for each chamber recorded for 30 min. To calculate the CPP score, we subtracted the time spent in each chamber of the box on the Pretest day from that of the Test day (CPP score = Test - Pretest).

mice [3] = assay: Hargreaves radiant heat test; assay type: in vivo, mouse
mice [4] = assay: Hot plate, 52 °C; assay type: in vivo, mouse
mice [5] = assay: Rotarod test; assay type: in vivo, mouse
mice [6] = assay: Acetone test, cold allodynia after spared nerve injury; assay type: in vivo, mouse
Description: Mice were placed on a wire mesh and thirty min after an i.p. injection of the compounds we applied a drop (50 μL) of acetone on the ventral aspect of the hindpaw, 5 times every 30 sec. We recorded the number of nocifensive behaviors (paw lifts/licks/shakes/bites) over the 5 applications.

mice [7] = assay: Catalepsy test, vertical wire mesh; assay type: in vivo, mouse
Description: Thirty min after an i.p. injection of the compounds, mice were placed on a vertical wire mesh and the latency to move all four paws was recorded.

mice [8] = tested on: mice
Description: For all behavioral tests, the experimenter was always blind to treatment. Animals were first habituated for 30-60 min in Plexiglas cylinders and then tested 30 min after i.p. or i.t. injection of the compounds. The thermal (Hargreaves, hotplate and tail flick) and ambulatory (rotarod) tests were conducted as described[96]. Briefly, hindpaw thermal sensitivity was measured with a radiant heat source (Hargreaves) or on a hotplate at 52 °C. For the tail flick assay, sensitivity was measured by immersing the tail into a 50 °C water bath. For the ambulatory (rotarod) test, before testing with any compound, mice underwent three trainings on three consecutive days until they reach 300 sec. Each training has three sessions of five min each. Therapeutic window was calculated as the ratio of the minimum dose of side effect phenotype to the minimum dose of analgesic phenotype.

[9] = Pharmacokinetics: plasma, brain, CSF; settings: 0.2 mg/kg i.p., CD-1 mice
[10] = 0.2 mg/kg, individual animals, FigS11b

In the case of `CN1CC[C@]23c4c5ccc(O)c4O[C@H]2[C@@H](O)C=C[C@H]3[C@H]1C5` [morphine, reference compound], the “analgesic response normalised to baseline, WT vs CB1R KO (Figure5d), individual animals” value (mice [1]; CB1R KO mice) is reported as 186.205 and 193.839 and 225.055 and 193.021 and 200.382, the “Response relative to baseline (baseline about 100)” value (mice [1]; Morphine 3 mg/kg, individual animals, sheet Figure7b, test not given) is reported as 153.4 and 95 and 153.1 and 101.6 and 124.1 and 132.6 and 140.4 and 96.4 and 125 and 194 and 137 and 131 and 126 and 149.7 and 136.2 and the “analgesic response normalised to baseline, WT vs CB1R KO (Figure5d), individual animals” value (mice [1]; WT mice) is reported as 138.803 and 169.174 and 209.668 and 177.834 and 174.541. The “Individual animal scores (FigS11e)” value (mice [2]; 20 mg/kg) was 125 and 92 and 189 and -5 and 874 and 419 and 158 and 182 and the conditioned place preference (mice [2]) was “significantly increased their preference”.

With `CCCCCCC(C)(C)c1ccc([C@@H]2C[C@H](O)CC[C@H]2CCCO)c(O)c1` [CP-55940] the “Dose response, individual animals (FigS11a)” value (mice [3]; Dose 0.2 mg/kg, test not printed on the sheet) was 256.9 and 109.7 and 71.66 and 121.4 and 287.7.

For `CCCCCCC(C)(C)c1ccc([C@@H]2C[C@H](O)CC[C@H]2CCCO)c(O)c1` [CP-55,940, reference compound], the Jump (mice [4]; [10]) was 18 and 0 (2×) and 4 (2×), the Paw lick (mice [4]; [10]) was 0 (4×) and 10 and the Paw shake (mice [4]; [10]) was 0 (2×) and 6 and 12 and 8. For the same compound, the Paw withdrawal (mice [4]; [10]) was 18 and 34 and 32 and 36 and 64, the “hot plate response normalised to baseline (Figure4b), individual animals” value (mice [4]; Dose 0.2 mg/kg) was 98.1 and 121.1 and 123.4 and 122.6 and 97.5 and the “hot plate response normalised to baseline (Figure4b), individual animals” value (mice [4]; Dose 0.5 mg/kg) was 256.6 and 226.6 and 210.5 and 222.4 and 213.7. The “lowest dose with significantly increased hot plate latency” value (mice [4]; i.p., 30 min after injection) was 0.5 mg/kg, the “lowest dose with significantly increased latency, Hargreaves” value (mice [3]; i.p., 30 min after injection) was 0.2 mg/kg and the “rotarod performance (Figure6b), individual animals” value (from here on “rotarod performance (Figure6b)”) (mice [5]; Dose 0.1 mg/kg) was 284 and 282 and 285 and 300. The “rotarod performance (Figure6b)” value (mice [5]; Dose 0.2 mg/kg) was 261 and 257 and 210 and 300 and 91 and 161 and 258 and 208 and 236 and 275, the “rotarod performance (Figure6b)” value (mice [5]; Dose 1.0 mg/kg) was 200 and 204 and 173 and 236 and 203 and the “motor impairment at analgesic doses” value (mice [5]; rotarod and open field) was “caused motor impairment in both the rotarod and open field tests”. The “Individual animal scores (FigS11e)” value (mice [2]; 0.5 mg/kg) was -18 and -21 and -54 and 119 and -213 and 8 and -326 and -238, the conditioned place preference (mice [2]) was “may actually induce some aversion” and the “acetone test response after spared nerve injury (Figure5b), individual animals” value (mice [6]; Dose 0.2 mg/kg) was 36 and 40 and 48 and 76. The “effect on acetone-induced nocifensive behaviors” value (mice [6]; spared nerve injury, i.p.) was “strongly reduced spared nerve injury-induced cold allodynia”, the “catalepsy (Figure6c), individual animals” value (mice [7]; 0.2 mg/kg dose) was 17 and 15 and 13 and 3 and 5 and the “catalepsy (Figure6c), individual animals” value (mice [7]; 0.5 mg/kg dose) was 6.8 and 5 (2×) and 30 and 5.6 and 4 and 2 (2×) and 7 and 8.5. For the same compound, the “catalepsy (Figure6c), individual animals” value (mice [7]; 1 mg/kg dose) was 15.3 and 23.3 and 17.7 and 28 and 15.7, the “dose at which catalepsy starts” value (mice [7]; i.p.) was 0.2 mg/kg and the “therapeutic window, Acetone” value (mice [8]; Figure 6e, vs rotarod) was 1. The “therapeutic window, Hot Plate” value (mice [8]; Figure 6e, vs rotarod) was 0.4, the “therapeutic window, Tail Flick” value (mice [8]; Figure 6e, vs rotarod) was 0.4 and the “therapeutic window, analgesia vs catalepsy” value (mice [8]; Figure 6f) was “no window between analgesia and catalepsy”. The “therapeutic window, Acetone” value (mice [8]; Figure 6d, vs open field) was 1, the “therapeutic window, Hot Plate” value (mice [8]; Figure 6d, vs open field) was 0.4 and the “therapeutic window, Tail Flick” value (mice [8]; Figure 6d, vs open field) was 0.4. The “brain Cmax” value [9] was 19.2 ng/g and the “brain T1/2” value [9] was 2.12 h.
